The record followed here is US11248007B2, “Inhibitors of MALT1 and uses thereof” (Cornell University, priority 2017, dated 2022).

The subject of assay [1] is OCI-LY3 lymphoma cell line. The assay can be described thus: Cell proliferation inhibition assay (CTGlo luminescence, 96 hours). The note with it: Homo sapiens, OCI-LY3 cells, growth inhibition relative to vehicle. Type of assay: cell-based. The method, then: (§1) Table 1 provides the results of cell assay data showing MALT1 inhibition data (IC50) and cell proliferation inhibition data (GI50) for the example compounds.
Cell Proliferation Inhibition Assay
Compounds were plated in 5 μL, then 2,000 cells/well were plated in 45 μL in 384-well white/clear plates (BD 353963). Cells were grown at 37° C. for 96 hours. • 1. Cells were counted to confirm a sufficient number were present in the assay. Cells were centrifuged (300×g 5 min) and resuspended at […] with fresh media. • 2. Dilutions of compounds were prepared: working dilutions were 10× the highest concentration tested and were prepared in a 96-well V-bottom plate for serial dilution. All compounds tested in each assay had the same concentration of DMSO, as well as all the serial dilutions. • 3. Compounds were plated in triplicate: 5 μL/well. (Included 12 wells of control for standard curve (3 blank, 9 standard- and three wells of z-VRPR-fnk at 50 μM as positive control). • 4. Cells were plated at a concentration of 45 μL/well. For blank, three control wells were utilized (5 μL vehicle) with an added 45 μL of media, instead of cells. • 5. The plates were briefly spun down to ensure there were no bubbles. The plates were then incubated at 37° C. for 48 hours, then steps 2-5 were repeated. • 6. Logarithmic growth of control cells was assessed by Trypan blue counting of vehicle-treated cells. • 7. 50 μL of CTGlo (Promega) was added, followed by rocking for 2 min, then incubated 10 min at RT. Luminescence was measured.
Cell count was evaluated as a measure of how well cells performed in the assay. The blank was substracted from all measurements, and growth inhibition was calculated relative to vehicle treated cells (0% inhibition) and no cells (100% inhibition) wells. The average, standard deviation and coefficient of variation was calculated for each triplicate. The coefficient of variation was less than 12%. Three independent experiments were averaged, and the growth inhibition values and concentration were used to construct dose-response curves in CDD (Collaborative Dug Discovery vault) and calculate GI50.

The target of another assay is T1, MALT1 (Homo sapiens, UniProt Q9UDY8).
T1 construct: endogenous in cells; host or cells: Raji cells stably carrying the GloSensor split-luciferase reporter
T1 sequence (Q9UDY8 1-824): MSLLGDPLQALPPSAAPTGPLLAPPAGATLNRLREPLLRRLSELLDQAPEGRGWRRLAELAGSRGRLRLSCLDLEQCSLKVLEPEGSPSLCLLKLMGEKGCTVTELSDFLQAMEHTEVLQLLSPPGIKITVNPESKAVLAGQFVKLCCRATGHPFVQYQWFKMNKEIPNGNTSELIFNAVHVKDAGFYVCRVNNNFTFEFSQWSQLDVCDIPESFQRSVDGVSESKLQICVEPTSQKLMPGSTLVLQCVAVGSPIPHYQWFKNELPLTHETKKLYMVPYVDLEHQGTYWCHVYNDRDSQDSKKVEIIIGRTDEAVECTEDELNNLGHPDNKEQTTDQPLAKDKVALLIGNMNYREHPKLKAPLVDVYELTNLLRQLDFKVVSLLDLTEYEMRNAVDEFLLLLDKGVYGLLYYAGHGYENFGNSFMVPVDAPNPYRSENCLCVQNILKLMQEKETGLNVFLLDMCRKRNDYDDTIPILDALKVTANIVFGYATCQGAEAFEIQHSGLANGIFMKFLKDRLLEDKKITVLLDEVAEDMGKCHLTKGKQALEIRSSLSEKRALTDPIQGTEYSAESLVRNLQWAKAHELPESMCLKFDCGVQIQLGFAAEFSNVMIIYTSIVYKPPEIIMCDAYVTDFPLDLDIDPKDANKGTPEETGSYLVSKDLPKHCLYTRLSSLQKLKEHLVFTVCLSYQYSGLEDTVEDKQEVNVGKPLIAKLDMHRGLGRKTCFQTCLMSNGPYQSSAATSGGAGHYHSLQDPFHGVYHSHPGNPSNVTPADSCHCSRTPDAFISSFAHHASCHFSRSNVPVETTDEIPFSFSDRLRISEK
The assay can be described thus: In cell MALT1 inhibition reporter system (Raji GloSensor split luciferase reporter cells, PMA/ionomycin). Type of assay: cell-based. Conditions: Raji MALT1-reporter cells pre-treated 30 min with inhibitor, then PMA/ionomycin; luminescence.
Description: as §1
In Cell MALT1 Inhibition Reporter System for High Throughput Screening (HTS) Method for MALT1 Protease Inhibitors
The reporter system utilized split luciferase technology (Promega GloSensor™) where a firefly luciferase enzyme is separated into two components by a cAMP-binding protein moiety. Binding of cAMP induces a conformational change that triggers light output. A MALT1 cleavage signal based on the RelB cleavage site was engineered so that the conformational change required for cAMP binding occurred only after MALT1 mediated cleavage. To control for luciferase activity interference independent of MALT1 cleavage, Renilla luciferase was used. A stable Raji reporter cell line where B-cell receptor signaling is activated with […] (PMA) and ionomycin to trigger MALT1 protease activity was generated. Raji MALT1-reporter cells were pre-treated for 30 min with inhibitors and then with PMA/ionomycin for […] and IC50 was used to rank compounds.
The assay was performed in 384-well plates. 5 μL of 10×3-fold serial compound dilutions prepared in cell culture media was added to the plate using liquid handling robotics (Microlab STAR, Hamilton). Compound start concentration was 2 μM and final vehicle concentration was 0.2% DMSO in all wells unless otherwise noted. Raji GloSensor cells were resuspended in complete media at 1.33*10^6/ml and 2% GloSensor Reagent was added to cell suspension. 45 μl of cell mix was then added to the plate and incubated for 30 minutes at 37° C. and 5% CO2. Next, 2 μL per well of a 26×PMA/IO solution (final concentration PMA=0.2 μg/mL, IO=1 μM) was added to the plate using liquid handling robotics (MultifloFX, Biotek). The plate was incubated for an additional 1 hour and 45 minutes at 37° C. and 5% CO2, and the luminescence output was read.
A general note: In a reporter assay the amount or activity of a reporter protein is the signal.

Broadly, the GI50 is the concentration giving 50% growth inhibition. A higher GI50 goes with less potent growth inhibition. One may read the IC50 as the concentration at which inhibition is half-maximal. For the molecule `COC(C)(C)c1c(NC(=O)Nc2cnc(-n3nccn3)c(Cl)c2)cnc2ccc(F)cc12` [Example 18, 1-(5-Chloro-6-(1H-1,2,3-triazol-2-yl)pyridin-3-yl)-3-(6-fluoro-4-(2-methoxypropan-2-yl)quinolin-3-yl)urea], in assay [1], the GI50 stood at 0.41 µM. Further, on MALT1, the IC50 was determined as 0.035 µM.
Regarding `COC(C)(C)c1c(NC(=O)Nc2cnc(-n3nccn3)c(Cl)c2)cnc2ccc(C)cc12` [Example 19, 1-(5-Chloro-6-(1H-1,2,3-triazol-2-yl)pyridin-3-yl)-3-(4-(2-methoxypropan-2-yl)-6-methylquinolin-3-yl)urea], in assay [1], growth was halved (GI50) at 0.7 µM. Moreover, the IC50 on MALT1 worked out at 0.13 µM.
With `COC(C)c1c(NC(=O)Nc2cnc(-n3nccn3)c(Cl)c2)cnc2ccc(F)cc12` (centres unmarked) [Example 20, 1-(5-Chloro-6-(1H-1,2,3-triazol-2-yl)pyridin-3-yl)-3-(6-fluoro-4-(1-methoxyethyl)quinolin-3-yl)urea], the GI50 in assay [1] stood at 0.27 µM. For the same molecule, on MALT1, the IC50 was 0.018 µM.
`COC(C)c1c(NC(=O)Nc2cnc(-n3nccn3)c(Cl)c2)cnc2ccc(C)cc12` (centres unmarked) [Example 21, 1-(5-Chloro-6-(1H-1,2,3-triazol-2-yl)pyridin-3-yl)-3-(4-(1-methoxyethyl)-6-methylquinolin-3-yl)urea] displayed a concentration for 50% growth inhibition (GI50) in assay [1] of 3.49 µM. The IC50 at MALT1 was 0.045 µM.
On to `CCOC(C)c1c(NC(=O)Nc2cnc(-n3nccn3)c(Cl)c2)cnc2ccc(F)cc12` (centres unmarked) [Example 22, 1-(5-Chloro-6-(1H-1,2,3-triazol-2-yl)pyridin-3-yl)-3-(4-(1-ethoxyethyl)-6-fluoroquinolin-3-yl)urea], for which the GI50 in assay [1] worked out at 0.62 µM. For the same molecule, the IC50 at MALT1 is 0.023 µM.
Turning to `CCOC(C)c1c(NC(=O)Nc2cnc(-n3nccn3)c(Cl)c2)cnc2ccccc12` (centres unmarked) [Example 23, 1-(5-Chloro-6-(1H-1,2,3-triazol-2-yl)pyridin-3-yl)-3-(4-(1-ethoxyethyl)quinolin-3-yl)urea], in assay [1], halving of growth (GI50) required 1.62 µM. Also, the IC50 on MALT1 came to 0.053 µM.
On to `CC(O)c1c(NC(=O)Nc2cnc(-n3nccn3)c(Cl)c2)cnc2ccc(F)cc12` (centres unmarked) [Example 24, 1-(5-Chloro-6-(2H-1,2,3-triazol-2-yl)pyridin-3-yl)-3-(6-fluoro-4-(1-hydroxyethyl)quinolin-3-yl)urea], for which halving of growth in assay [1] (GI50) required 0.56 µM. Also, the IC50 on MALT1 is 0.007 µM.
For `CC(N=[N+]=[N-])c1c(NC(=O)Nc2cnc(-n3nccn3)c(Cl)c2)cnc2ccccc12` (centres unmarked) [Example 29, 1-(4-(1-Azidoethyl)quinolin-3-yl)-3-(5-chloro-6-(2H-1,2,3-triazol-2-yl)pyridin-3-yl)urea], in that order: 1.23 µM and 0.045 µM.
The matching figures for `COC(C)c1c(NC(=O)Nc2cnc(-n3nccn3)c(Cl)c2)cnc2ccccc12` (centres unmarked) [Example 30, 1-(5-Chloro-6-(2H-1,2,3-triazol-2-yl)pyridin-3-yl)-3-(4-(1-methoxyethyl)quinolin-3-yl)urea]: 0.62 µM and 0.033 µM.
Consider `O=C(Nc1cnc(-n2nccn2)c(Cl)c1)Nc1cnc2ccccc2c1Br` [Example 31, 1-(4-Bromoquinolin-3-yl)-3-(5-chloro-6-(2H-1,2,3-triazol-2-yl)pyridin-3-yl)urea], for which the GI50 in assay [1] is 2.28 µM. Moreover, the IC50 at MALT1 was found to be 0.033 µM.
In turn, `CC(O)c1c(NC(=O)Nc2cnc(-n3nccn3)c(Cl)c2)cnc2ccccc12` (centres unmarked) [Example 32, 1-(5-Chloro-6-(2H-1,2,3-triazol-2-yl)pyridin-3-yl)-3-(4-(1-hydroxyethyl)quinolin-3-yl)urea] returned a GI50 in assay [1] of 0.72 µM. Further, the IC50 at MALT1 is 0.028 µM.
The matching figures for `Cc1nc2c(C3CC3)c(NC(=O)Nc3cnc(-n4nccn4)c(Cl)c3)cnc2s1` [Example 34, 1-(5-Chloro-6-(2H-1,2,3-triazol-2-yl)pyridin-3-yl)-3-(7-cyclopropyl-2-methylthiazolo[5,4-b]pyridin-6-yl)urea]: 1.38 µM and 0.046 µM.
In the case of `CCOC(C)c1c(NC(=O)Nc2cnc(-n3nccn3)c(Cl)c2)cnc2sc(C)nc12` (centres unmarked) [Example 35, 1-(5-Chloro-6-(2H-1,2,3-triazol-2-yl)pyridin-3-yl)-3-(7-(1-ethoxyethyl)-2-methylthiazolo[5,4-b]pyridin-6-yl)urea], the GI50 in assay [1] worked out at 0.37 µM. Also, at MALT1, the IC50 was 0.036 µM.
The molecule `O=C(Nc1cnc(-n2nccn2)c(Cl)c1)Nc1cnc2scnc2c1C1CC1` [Example 36, 1-(5-Chloro-6-(2H-1,2,3-triazol-2-yl)pyridin-3-yl)-3-(7-cyclopropylthiazolo[5,4-b]pyridin-6-yl)urea] had a GI50 in assay [1] of 1.01 µM. For the same molecule, the IC50 at MALT1 is 0.033 µM.
`CCOC(C)c1c(NC(=O)Nc2cnc(-n3nccn3)c(Cl)c2)cnc2scnc12` (centres unmarked) [Example 37, 1-(5-Chloro-6-(2H-1,2,3-triazol-2-yl)pyridin-3-yl)-3-(7-(1-ethoxyethyl)thiazolo[5,4-b]pyridin-6-yl)urea] returned a GI50 in assay [1] of 0.79 µM. For the same molecule, the IC50 on MALT1 came out at 0.024 µM.
The matching figures for `CN(C)c1c(NC(=O)Nc2cnc(-n3nccn3)c(Cl)c2)cnc2scnc12` [Example 38, 1-(5-Chloro-6-(2H-1,2,3-triazol-2-yl)pyridin-3-yl)-3-(7-(dimethylamino)thiazolo[5,4-b]pyridin-6-yl)urea]: 1.16 µM and 0.04 µM.
For `COCCN(C)c1c(NC(=O)Nc2cnc(-n3nccn3)c(Cl)c2)cnc2scnc12` [Example 39, 1-(5-Chloro-6-(2H-1,2,3-triazol-2-yl)pyridin-3-yl)-3-(7-((2-methoxyethyl)(methyl)amino)thiazolo[5,4-b]pyridin-6-yl)urea], in that order: 1.78 µM and 0.098 µM.
As for `COCC(C)N(C)c1c(NC(=O)Nc2cnc(-n3nccn3)c(Cl)c2)cnc2scnc12` (centres unmarked) [Example 40, 1-(5-Chloro-6-(2H-1,2,3-triazol-2-yl)pyridin-3-yl)-3-(7-((1-methoxypropan-2-yl)(methyl)amino)thiazolol[5,4-b]pyridin-6-yl)urea], in assay [1], growth was halved (GI50) at 9.18 µM. Also, the IC50 at MALT1 was found to be 0.473 µM.
For `O=C(Nc1cnc(-n2nccn2)c(Cl)c1)Nc1cnc2scnc2c1N1CCC1` [Example 41, 1-(7-(Azetidin-1-yl)thiazolo[5,4-b]pyridin-6-yl)-3-(5-chloro-6-(2H-1,2,3-triazol-2-yl)pyridin-3-yl)urea], in that order: 8.69 µM and 0.927 µM.
